ChEMBL document CHEMBL1201862, “PubChem BioAssay data set” (2004)
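Assay format: 96-well plates, 48-hour exposure. GI50: concentration for 50% inhibition of growth.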 Active and inactive are the calls of the source. Rule as the data show it: active = GI50 up to about 1.1 µM and inactive = higher.

Legend:
Experiment in all cases: NCI-60 cell line screen, 48 h
[1] = test system: EKVX
[2] = test system: A498
[3] = test system: SNB-75
[4] = test system: SK-MEL-28
[5] = test system: KM-20L2
[6] = test system: CAKI-1
[7] = test system: HT-29
[8] = test system: U-251
[9] = test system: HL-60
[10] = test system: CCRF-CEM
[11] = test system: LOX IMVI
[12] = test system: RXF 393
[13] = test system: UACC-257
[14] = test system: 786-0
[15] = test system: UO-31
[16] = test system: OVCAR-8
[17] = test system: HCT-116
[18] = test system: OVCAR-4
[19] = test system: K562
[20] = test system: M19-MEL
[21] = test system: SK-MEL-5
[22] = test system: OVCAR-3
[23] = test system: SF-539
[24] = test system: SF-295
[25] = test system: SNB-78
[26] = test system: ACHN
[27] = test system: NCI-H460
[28] = test system: HOP-92
[29] = test system: UACC-62
[30] = test system: SN12C
[31] = test system: A549
[32] = test system: MOLT-4
[33] = test system: Malme-3M
[34] = test system: M14
[35] = test system: LXFL 529
[36] = test system: DLD-1
[37] = test system: DMS-273
[38] = test system: RPMI-8226
[39] = test system: DMS-114
[40] = test system: XF498
[41] = test system: SW-620
[42] = test system: HCT-15
[43] = test system: NCI-H23
[44] = test system: SNB-19
[45] = test system: TK-10
[46] = test system: SK-MEL-2
[47] = test system: OVCAR-5
[48] = test system: HOP-18
[49] = test system: NCI-H226
[50] = test system: KM12
[51] = test system: HCC 2998
[52] = test system: SF-268
[53] = test system: NCI-H522
[54] = test system: COLO 205
[55] = test system: SK-OV-3
[56] = test system: IGROV-1
[57] = test system: HOP-62
[58] = test system: SR

Cc1cc(=O)oc2c1cc(OCC(=O)OCCN1CCCCC1)c1occ(C)c12
GI50 [1]: > 100 µM (inactive)
GI50 [2]: > 100 µM (inactive)
GI50 [3]: > 100 µM (inactive)
GI50 [4]: > 100 µM (inactive)
GI50 [5]: > 100 µM (inactive)
GI50 [6]: > 100 µM (inactive)
GI50 [7]: > 100 µM (inactive)
GI50 [8]: > 100 µM (inactive)
GI50 [9]: > 100 µM (inactive)
GI50 [10]: > 100 µM (inactive)
GI50 [11]: > 100 µM (inactive)
GI50 [12]: > 100 µM (inactive)
GI50 [13]: > 100 µM (inactive)
GI50 [14]: > 100 µM (inactive)
GI50 [15]: > 100 µM (inactive)
GI50 [16]: > 100 µM (inactive)
GI50 [17]: > 100 µM (inactive)
GI50 [18]: > 100 µM (inactive)
GI50 [19]: > 100 µM (inactive)
GI50 [20]: > 100 µM (inactive)
GI50 [21]: > 100 µM (inactive)
GI50 [22]: > 100 µM (inactive)
GI50 [23]: > 100 µM (inactive)
GI50 [24]: > 100 µM (inactive)
GI50 [25]: > 100 µM (inactive)
GI50 [26]: > 100 µM (inactive)
GI50 [27]: > 100 µM (inactive)
GI50 [28]: > 100 µM (inactive)
GI50 [29]: > 100 µM (inactive)
GI50 [30]: > 100 µM (inactive)
GI50 [31]: > 100 µM (inactive)
GI50 [32]: > 100 µM (inactive)
GI50 [33]: > 100 µM (inactive)
GI50 [34]: > 100 µM (inactive)
GI50 [35]: > 100 µM (inactive)
GI50 [36]: > 100 µM (inactive)
GI50 [37]: > 100 µM (inactive)
GI50 [38]: > 100 µM (inactive)
GI50 [39]: > 100 µM (inactive)
GI50 [40]: > 100 µM (inactive)
GI50 [41]: > 100 µM (inactive)
GI50 [42]: > 100 µM
GI50 [43]: > 100 µM (inactive)
GI50 [44]: > 100 µM (inactive)
GI50 [45]: > 100 µM (inactive)
GI50 [46]: > 100 µM (inactive)
GI50 [47]: > 100 µM (inactive)
GI50 [48]: > 100 µM (inactive)
GI50 [49]: > 100 µM (inactive)
GI50 [50]: > 100 µM (inactive)
GI50 [51]: > 100 µM (inactive)

CC(NS(=O)(=O)c1ccc(Cl)cc1)C(=O)O (centres undefined)
GI50 [1]: > 100 µM (inactive)
GI50 [2]: > 100 µM (inactive)
GI50 [3]: > 100 µM (inactive)
GI50 [4]: > 100 µM (inactive)
GI50 [5]: > 100 µM (inactive)
GI50 [6]: > 100 µM (inactive)
GI50 [7]: > 100 µM (inactive)
GI50 [8]: > 100 µM (inactive)
GI50 [9]: > 100 µM (inactive)
GI50 [10]: > 100 µM (inactive)
GI50 [11]: > 100 µM (inactive)
GI50 [12]: > 100 µM (inactive)
GI50 [13]: > 100 µM (inactive)
GI50 [14]: > 100 µM (inactive)
GI50 [15]: > 100 µM (inactive)
GI50 [16]: > 100 µM (inactive)
GI50 [18]: > 100 µM (inactive)
GI50 [19]: > 100 µM (inactive)
GI50 [20]: > 100 µM (inactive)
GI50 [21]: > 100 µM (inactive)
GI50 [22]: > 100 µM (inactive)
GI50 [23]: > 100 µM (inactive)
GI50 [52]: > 100 µM (inactive)
GI50 [53]: > 100 µM (inactive)
GI50 [24]: > 100 µM (inactive)
GI50 [26]: > 100 µM (inactive)
GI50 [27]: > 100 µM (inactive)
GI50 [28]: > 100 µM (inactive)
GI50 [29]: > 100 µM (inactive)
GI50 [30]: > 100 µM (inactive)
GI50 [31]: > 100 µM (inactive)
GI50 [32]: > 100 µM (inactive)
GI50 [33]: > 100 µM (inactive)
GI50 [54]: > 100 µM (inactive)
GI50 [34]: > 100 µM (inactive)
GI50 [35]: > 100 µM (inactive)
GI50 [55]: > 100 µM (inactive)
GI50 [36]: > 100 µM (inactive)
GI50 [37]: > 100 µM (inactive)
GI50 [38]: > 100 µM (inactive)
GI50 [56]: > 100 µM (inactive)
GI50 [40]: 66.7 µM (inactive)
GI50 [41]: > 100 µM (inactive)
GI50 [42]: > 100 µM
GI50 [43]: > 100 µM (inactive)
GI50 [44]: > 100 µM (inactive)
GI50 [45]: > 100 µM (inactive)
GI50 [46]: > 100 µM (inactive)
GI50 [47]: > 100 µM (inactive)
GI50 [48]: > 100 µM (inactive)
GI50 [50]: > 100 µM (inactive)

Nc1nc(SCCNC(=O)CCc2ccc(O)c(I)c2)nc2c1ncn2C1OC(CO)C(O)C1O (centres undefined)
GI50 [1]: > 100 µM (inactive)
GI50 [2]: > 100 µM (inactive)
GI50 [3]: > 100 µM (inactive)
GI50 [4]: > 100 µM (inactive)
GI50 [5]: > 100 µM (inactive)
GI50 [7]: > 100 µM (inactive)
GI50 [8]: > 100 µM (inactive)
GI50 [9]: > 100 µM (inactive)
GI50 [10]: > 100 µM (inactive)
GI50 [12]: > 100 µM (inactive)
GI50 [13]: > 100 µM (inactive)
GI50 [16]: > 100 µM (inactive)
GI50 [17]: > 100 µM (inactive)
GI50 [18]: > 100 µM (inactive)
GI50 [19]: > 100 µM (inactive)
GI50 [20]: > 100 µM (inactive)
GI50 [21]: > 100 µM (inactive)
GI50 [22]: > 100 µM (inactive)
GI50 [23]: > 100 µM (inactive)
GI50 [52]: > 100 µM (inactive)
GI50 [53]: > 100 µM (inactive)
GI50 [24]: > 100 µM (inactive)
GI50 [25]: > 100 µM (inactive)
GI50 [26]: > 100 µM (inactive)
GI50 [27]: > 100 µM (inactive)
GI50 [28]: > 100 µM (inactive)
GI50 [29]: > 100 µM (inactive)
GI50 [57]: > 100 µM (inactive)
GI50 [30]: > 100 µM (inactive)
GI50 [31]: > 100 µM (inactive)
GI50 [32]: > 100 µM (inactive)
GI50 [33]: > 100 µM (inactive)
GI50 [54]: > 100 µM (inactive)
GI50 [34]: > 100 µM (inactive)
GI50 [35]: > 100 µM (inactive)
GI50 [55]: > 100 µM (inactive)
GI50 [36]: > 100 µM (inactive)
GI50 [37]: > 100 µM (inactive)
GI50 [56]: > 100 µM (inactive)
GI50 [39]: > 100 µM (inactive)
GI50 [40]: > 100 µM (inactive)
GI50 [41]: > 100 µM (inactive)
GI50 [42]: > 100 µM
GI50 [43]: > 100 µM (inactive)
GI50 [44]: > 100 µM (inactive)
GI50 [45]: > 100 µM (inactive)
GI50 [46]: > 100 µM (inactive)
GI50 [58]: > 100 µM (inactive)
GI50 [47]: > 100 µM (inactive)
GI50 [49]: > 100 µM (inactive)
GI50 [50]: > 100 µM (inactive)
GI50 [51]: > 100 µM (inactive)
